Activity calls are given as the source filed them. The calls are words filed in the database; no cut-off is given here.
What was measured:
Mus musculus [1] = assay: Increase in oxygen consumption in HFD-induced obese C57BL/6J mouse at 40 mg/kg, ip administered twice daily for 2.5 days incubated for 12.6 hrs under dark condition followed by redosing on day 3 for 2 times; format: functional, organism-based
Mus musculus [2] = assay: Increase in carbon dioxide production in HFD-induced obese C57BL/6J mouse at 40 mg/kg, ip administered twice daily for 2.5 days measured up to 12.6 hrs under dark condition; format: functional, organism-based
Mus musculus [3] = assay: Down regulation of ACL1 mRNA expression in HFD-induced obese C57BL/6J mouse adipose tissue at 20 to 40 mg/kg, ip administered twice daily for 2.5 days measured at 2 hrs post last dose by RT-PCR analysis; format: functional, organism-based
Mus musculus [4] = assay: Antihyperlipidemic activity in high fat diet-induced obese C57BL/6J mouse assessed as serum triglyceride levels at 40 mg/kg, ip administered twice daily for 2.5 days measured at 2 hrs post last dose (reference value: 1.31 +/- 0.48 mmol/L); format: functional
Mus musculus [5] = assay: Increase in phosphorylated AMPKalpha level in HFFD-induced obese C57BL/6J mouse liver at 20 to 40 mg/kg, ip administered twice daily for 2.5 days measured at 2 hrs post last dose by Western blot analysis; format: functional, organism-based
Mus musculus [6] = assay: Down regulation of FAS mRNA expression in HFD-induced obese C57BL/6J mouse adipose tissue at 20 to 40 mg/kg, ip administered twice daily for 2.5 days measured at 2 hrs post last dose by RT-PCR analysis; format: functional, organism-based
Mus musculus [7] = assay: Down regulation of SREBP2 mRNA expression in HFD-induced obese C57BL/6J mouse adipose tissue at 20 to 40 mg/kg, ip administered twice daily for 2.5 days measured at 2 hrs post last dose by RT-PCR analysis; format: functional, organism-based
Mus musculus [8] = assay: Antihyperlipidemic activity in high fat diet-induced obese C57BL/6J mouse assessed as reduction in liver cholesterol levels at 20 to 40 mg/kg, ip administered twice daily for 2.5 days measured at 2 hrs post last dose; format: functional, organism-based
Mus musculus [9] = assay: Improvement in serum AST level in HFFD-induced obese C57BL/6J mouse assessed as serum AST level at 40 mg/kg, ip administered twice daily for 2.5 days followed by once daily dosing up to 16 days measured at 2 hrs post last dose (reference value: 15.14 +/- 3.84 IU/L); format: functional
Mus musculus [10] = assay: Down regulation of SREBP1 mRNA expression in HFD-induced obese C57BL/6J mouse adipose tissue at 20 to 40 mg/kg, ip administered twice daily for 2.5 days measured at 2 hrs post last dose by RT-PCR analysis; format: functional, organism-based
Mus musculus [11] = assay: Antihyperglycemic activity in high fat diet-induced obese C57BL/6J mouse assessed as reduction in blood glucose level at 40 mg/kg, ip administered as single dose measured after 36 hrs; format: functional, organism-based
Mus musculus [12] = assay: Antihyperlipidemic activity in high fat diet-induced obese C57BL/6J mouse assessed as serum LDL-C levels at 40 mg/kg, ip administered twice daily for 2.5 days measured at 2 hrs post last dose (reference value: 2.54 +/- 0.87 mmol/L); format: functional
Mus musculus [13] = assay: Increase in carbon dioxide production in HFD-induced obese C57BL/6J mouse at 40 mg/kg, ip administered twice daily for 2.5 days incubated for 12.6 hrs under dark condition followed by redosing on day 3 for 2 times; format: functional, organism-based
Mus musculus [14] = assay: Antiobesity activity in HFFD-induced obese C57BL/6J mouse assessed as reduction in body weight at 40 mg/kg, ip administered twice daily for 2.5 days followed by once daily dosing up to 16 days relative to control; format: functional; set-up: scale not given: the % may be the effect or the level left
Mus musculus [15] = assay: Down regulation of FAS mRNA expression in HFD-induced obese C57BL/6J mouse liver at 20 to 40 mg/kg, ip administered twice daily for 2.5 days measured at 2 hrs post last dose by RT-PCR analysis; format: functional, organism-based
Mus musculus [16] = assay: Toxicity in HFFD-induced obese C57BL/6J mouse assessed as effect on food intake at 40 mg/kg, ip administered twice daily for 2.5 days followed by once daily dosing up to 16 days measured daily during compound dosing; format: organism-based; conditions: in vivo
Mus musculus [17] = assay: Improvement in insulin resistance in high fat diet-induced obese C57BL/6J mouse assessed as increase in phosphorylated GSK3beta expression in skeletal muscle at 40 mg/kg, ip administered twice daily for 2.5 days measured at 2 hrs post last dose by Western blot analysis; format: functional, organism-based
Mus musculus [18] = assay: Improvement in insulin resistance in high fat diet-induced obese C57BL/6J mouse assessed as increase in phosphorylated GSK3beta level in liver at 40 mg/kg, ip administered twice daily for 2.5 days measured at 2 hrs post last dose by Western blot analysis; format: functional, organism-based
Mus musculus [19] = assay: Improvement in insulin resistance in high fat diet-induced obese C57BL/6J mouse assessed as reduction in fasting serum glucose level at 40 mg/kg, ip pretreated twice daily for 2.5 days followed by insulin challenge at 2 hrs post last dose measured up to 2 hrs by ITT; format: functional, organism-based
Mus musculus [20] = assay: Down regulation of HMGCS mRNA expression in HFD-induced obese C57BL/6J mouse liver at 20 to 40 mg/kg, ip administered twice daily for 2.5 days measured at 2 hrs post last dose by RT-PCR analysis; format: functional, organism-based
Mus musculus [21] = assay: Effect on respiratory exchange ratios in HFD-induced obese C57BL/6J mouse at 40 mg/kg, ip administered twice daily for 2.5 days measured up to 12.6 hrs under dark condition; format: functional, organism-based
Mus musculus [22] = assay: Improvement in insulin resistance in high fat diet-induced obese C57BL/6J mouse assessed as reduction in blood glucose AUC at 40 mg/kg, ip administered as single dose pretreated for 2 hrs followed by insulin challenge measured up to 2 hrs by ITT; format: functional, organism-based
Mus musculus [23] = assay: Antihyperglycemic activity in high fat diet-induced obese C57BL/6J mouse assessed as reduction in blood glucose AUC at 40 mg/kg, ip pretreated twice daily for 2.5 days followed by glucose challenge at 2 hrs post last dose by OGTT; format: functional, organism-based
Mus musculus [24] = assay: Improvement in insulin resistance in high fat diet-induced obese C57BL/6J mouse assessed as increase in insulin sensitivity index at 40 mg/kg, ip pretreated twice daily for 2.5 days followed by insulin challenge at 2 hrs post last dose measured up to 2 hrs by ITT; format: functional, organism-based
Mus musculus [25] = assay: Down regulation of ABCG8 mRNA expression in HFD-induced obese C57BL/6J mouse liver at 20 to 40 mg/kg, ip administered twice daily for 2.5 days measured at 2 hrs post last dose by RT-PCR analysis; format: functional, organism-based
Mus musculus [26] = assay: Improvement in serum ALT level in HFFD-induced obese C57BL/6J mouse assessed as serum ALT level at 40 mg/kg, ip administered twice daily for 2.5 days followed by once daily dosing up to 16 days measured at 2 hrs post last dose (reference value: 20.49 +/- 4.5 IU/L); format: functional
Mus musculus [27] = assay: Down regulation of ACL1 mRNA expression in HFD-induced obese C57BL/6J mouse liver at 20 to 40 mg/kg, ip administered twice daily for 2.5 days measured at 2 hrs post last dose by RT-PCR analysis; format: functional, organism-based
Mus musculus [28] = assay: Improvement in insulin resistance in high fat diet-induced obese C57BL/6J mouse assessed as increase in GLUT2 expression in skeletal muscle at 40 mg/kg, ip administered twice daily for 2.5 days measured at 2 hrs post last dose by Western blot analysis; format: functional, organism-based

`COC(=O)C1=CCC[C@H]2[C@](C)(C[C@@H](O[C@@H]3O[C@H](CO)[C@@H](O)[C@H](O)[C@H]3O)c3ccoc3)[C@H]3C[C@H](OC3=O)[C@@]12C` was tested, and the Activity (Mus musculus [1]) was “Active”, the Activity (Mus musculus [2]) was “Active” and the Activity (Mus musculus [3]) was “Active”. For the same compound, the Activity (Mus musculus [4]) was 0.5 mmol/L, the Activity (Mus musculus [5]) was “inactive” and the Activity (Mus musculus [6]) was “Active”. The Activity (Mus musculus [7]) was “Active”, the Activity (Mus musculus [8]) was “Active” and the Activity (Mus musculus [9]) was 8.61 IU/L. For the same compound, the Activity (Mus musculus [10]) was “Active”, the Activity (Mus musculus [11]) was “Active” and the Activity (Mus musculus [12]) was 1.65 mmol/L. For the same compound, the Activity (Mus musculus [13]) was “Active”, the Activity (Mus musculus [14]) was 8.7% and the Activity (Mus musculus [15]) was “Active”. The Activity (Mus musculus [16]) was “Non-Toxic”, the Activity (Mus musculus [17]) was “Active” and the Activity (Mus musculus [18]) was “Active”. For the same compound, the Activity (Mus musculus [19]) was “Active”, the Activity (Mus musculus [20]) was “Active” and the Activity (Mus musculus [21]) was “inactive”. The Activity (Mus musculus [22]) was “Active”, the Activity (Mus musculus [23]) was “Active” and the Activity (Mus musculus [24]) was “Active”. The Activity (Mus musculus [25]) was “Active”, the Activity (Mus musculus [26]) was 15.75 IU/L and the Activity (Mus musculus [27]) was “Active”. The Activity (Mus musculus [28]) was “Active”.

— ChEMBL document CHEMBL4190285, “Borapetoside E, a Clerodane Diterpenoid Extracted from Tinospora crispa, Improves Hyperglycemia and Hyperlipidemia in High-Fat-Diet-Induced Type 2 Diabetes Mice” (J Nat Prod, 2017)
